Assay [1] relates to eukaryotic translation system on the basis of a cell extract from Spodoptera frugiperda (Sf21) insect cells. As to the kind of experiment: Influence of irreversible and reversible caspase inhibitors on SII-eYFP synthesis, relative fluorescence intensity. Format: biochemical. Conditions: inhibitor 30 μM, 48 h, dialysis mode, compared with control dialysis mixture without inhibitor. The procedure: Using the example of the fluorescent protein SII-eYFP, the influence of different irreversible caspase inhibitors (Z-VAD-FMK, Ac-VAD-CMK, Ac-DEVD-CMK (SEQ ID NO:1), Q-VD-OPh) and of a reversible caspase inhibitor (Ac-[…]-CHO (SEQ ID NO:10)) on the synthesis was investigated in a eukaryotic dialysis translation system.
The translation of SII-eYFP was carried out using the DNA template pIX3.0-SII-eYFP over 48 h at 600 rpm and 27° C. in the batch and dialysis modes in the presence of different irreversible and reversible caspase inhibitors. All inhibitors were used in a concentration of 30 μM. Following the completion of translation, the different mixtures were examined in the phosphorimager system (Typhoon TRIO+ imager, GE Healthcare) for their fluorescence intensity. For this purpose, 5 μl of each translation mixture was resuspended in 25 μl PBS. Subsequently, 25 μl of this sample was pipetted into a cavity of an Ibidi slide and measured, the excitation of the samples taking place at 488 nm and the emission being measured at 526 nm.

Assay [2] deals with cell-free eukaryotic translation system on the basis of a cell extract from Spodoptera frugiperda (Sf21) insect cells. As to the kind of experiment: Influence of DTT on expression of model proteins in batch and dialysis system (autoradiograph). Conditions: with Z-VAD-FMK, 48 h. It is filed as biochemical. The procedure: For this purpose, the influence of the reducing agent DTT on the synthesis performance of the batch and dialysis system with different model proteins was investigated.
The synthesis of the glycoprotein erythropoietin (N-terminally fused to a melittin signal sequence; Mel-EPO; 20.9 kDa, unglycosylated) and of ETB (49.3 kDa), luciferase (60.6 kDa), Mel-Hb-EGF-eYFP (51 kDa) and bacteriorhodopsin (26.9 kDa) was carried out in the batch (B) and dialysis system (D) with the addition of the caspase inhibitor (Z-VAD-FMK) without (−) and with (+) the addition of DTT in the translation buffer in the presence of ^14C-leucine for 48 h, 27° C. and 600 rpm.
Control=translation mixture without the addition of a DNA template.

For `CC(C)C(NC(=O)c1ccc2ccccc2n1)C(=O)NC(CC(=O)O)C(=O)COc1c(F)cccc1F` (stereo not drawn) [Q-VD-OPh, N-(2-quinolyl)-Val-Asp-(2,6-difluorophenoxy)-methylketone], in assay [1], the “increase of synthesis yield of fluorescing SII-eYFP” value came out at 77%.
On to `O[C@H](CS)[C@H](O)CS` (racemic) [DTT, dithiothreitol], for which, in assay [2], the “effect of absence of DTT on expression of model proteins (luciferase, SII-eYFP, ETB, Mel-Hb-EGF-eYFP, bacteriorhodopsin)” value is “no negative effect”. The “glycosylation of Mel-EPO” value in assay [2] (with/without DTT) is given as “complete glycosylation of the target protein could only be achieved in the presence of DTT”.
Regarding `CC(=O)N[C@@H](CC(=O)O)C(=O)N[C@@H](CCC(=O)O)C(=O)N[C@H](C(=O)N[C@@H](CC(=O)O)C(=O)CCl)C(C)C` [Ac-DEVD-CMK, acetyl-Asp-Glu-Val-Asp-chloromethylketone], the “increase of synthesis yield of fluorescing SII-eYFP” value in assay [1] was found to be 122%.
On the same count and under the same terms, in the case of “acetyl-Ala-Ala-Val-Ala-Leu-Leu-Pro-Ala-Val-Leu-Leu-Ala-Leu-Leu-Ala-Pro-Asp-Glu-Val-Asp-aldehyde (Ac-AAVALLPAVLLALLAPDEVD-aldehyde; SMILES CC(=O)N[C@@H](C)C(=O)N[C@@H](C)C(=O)N[C@H](C(=O)N[C@@H](C)C(=O)N[C@@H](CC(C)C)C(=O)N[C@@H](CC(C)C)C(=O)N1CCC[C@H]1C(=O)N[C@@H](C)C(=O)N[C@H](C(=O)N[C@@H](CC(C)C)C(=O)N[C@@H](CC(C)C)C(=O)N[C@@H](C)C(=O)N[C@@H](CC(C)C)C(=O)N[C@@H](CC(C)C)C(=O)N[C@@H](C)C(=O)N1CCC[C@H]1C(=O)N[C@@H](CC(=O)O)C(=O)N[C@@H](CCC(=O)O)C(=O)N[C@H](C(=O)N[C@H](C=O)CC(=O)O)C(C)C)C(C)C)C(C)C)” it was 53%.

(Values after US9951366B2, “Cell-free protein synthesis method and device using a eukaryotic cell lysate in the presence of a caspase inhibitor and the use of a caspase inhibitor for increasing the yield and/or the stability of the synthesized proteins in such a method” (Fraunhofer-Gesellschaft zur Foerderung der angewandten …, priority 2013, dated 2018).)
